The subject of one assay is A2780. Briefly: Cytotoxicity against human A2780 cells. Format: functional. The following applies: read-out: ID50 (the source's name).
In another assay the test system is K562. Briefly: Cytotoxicity against human K562 cells. The settings on record: read-out: ID50 (the source's name). Format: functional.

Values after ≈ are worked out from the molar mass of the structure shown.

For the compound `CNCCCOc1c(Br)cc(CCNC(=O)C2=NO[C@]3(C=C(Br)C(OC)=C(Br)[C@@H]3O)C2)cc1Br`, the IC50 amounted to 7.44 µg/mL (≈ 10.2 µM) in the assay on A2780 and 6.02 µg/mL (≈ 8.23 µM) in the assay with K562.
`COC1=C(Br)[C@@H](O)[C@]2(C=C1Br)CC(C(=O)NCCc1cnc[nH]1)=NO2` [AEROPHOBIN 1]: the results for the IC50 in the assay on A2780 and with K562 were 21.5 µg/mL (≈ 45.2 µM) and 24.1 µg/mL (≈ 50.6 µM), respectively.
For `COC1=C(Br)[C@H](O)[C@@]2(C=C1Br)CC(C(=O)NCCCc1cnc(N)[nH]1)=NO2` [AEROPHOBIN 2] the same measures were over 10 µg/mL and 6.91 µg/mL (≈ 13.7 µM).
For `COc1ccc(C/C(=N/O)C(=O)NCCc2cc(Br)c(OCCCN(C)C)c(Br)c2)cc1Br` [APLYSAMINE 2] the same measures were 2.83 µg/mL (≈ 4.35 µM) and 1.37 µg/mL (≈ 2.11 µM).
For `COC1=C(Br)[C@@H](O)[C@]2(C=C1Br)CC(C(=O)NCCCOc1c(Br)cc(CCN)cc1Br)=NO2` [ARAPLYSILLIN 1], the results for the IC50 in the assay with A2780 and with K562 were 18.6 µg/mL (≈ 25.9 µM) and 27.9 µg/mL (≈ 39 µM), respectively.
On to `COC1=C(Br)[C@H](O)[C@@]2(C=C1Br)CC(C(=O)NCCCOc1c(Br)cc(CCNC(=O)CCCCCCCCCCCC(C)C)cc1Br)=NO2` [ARAPLYSILLIN 2], for which the IC50 in the assay on A2780 was 14.8 µg/mL (≈ 15.7 µM); in the assay with K562, 42.7 µg/mL (≈ 45.4 µM).
Take `COC1=C(Br)[C@@H](O)[C@]2(C=C1Br)CC(C(=O)NCCc1cnc(N)[nH]1)=NO2` [PUREALIDIN J]: the IC50 with A2780 and in the assay with K562 was over 10 µg/mL throughout.
Regarding `CNCCCOc1c(Br)cc(CCNC(=O)/C(Cc2ccc(OC)c(Br)c2)=N/O)cc1Br` [PURPUREAMINE I], the IC50 with A2780 stood at 1.7 µg/mL (≈ 2.67 µM); with K562 it was 1.24 µg/mL (≈ 1.95 µM).
Regarding `COc1ccc(C/C(=N\O)C(=O)NCCc2cc(Br)c(OCCC[N+](C)(C)[O-])c(Br)c2)cc1Br` [PURPUREAMINE J], the IC50 in the assay on A2780 was determined as 6.77 µg/mL (≈ 10.2 µM); in the assay on K562 it was 5.97 µg/mL (≈ 8.96 µM).

The record behind these values is ChEMBL document CHEMBL1150155, “Purealidin S and purpuramine J, bromotyrosine alkaloids from the Fijian marine sponge Druinella sp” (2002).
